Entries after “also recorded” stand apart in the source; their conditions may differ.
System: total glutathione levels
Test: Total glutathione in striatum and liver of rats after CHX depletion
Type: in vivo, Sprague-Dawley rats
Conditions: CHX 75 mg/kg i.p.
Procedure: Male Sprague-Dawley rats aged nine weeks and weighing an average of 390 g, were used in the study. Animals were maintained on a twelve hour light-dark cycle with water and food ad libitum. Two animals were housed per cage with room temperature maintained at 22° C.
All pharmacological agents were administered by intraperitoneal injection (i.p.) in a volume of 1 ml/kg, except where otherwise stated. All agents were prepared using saline as a diluent. Brain GSH depletion was performed using cyclohexene-1-one (CHX), administered at 75 mg/kg. Animals were returned to their cage for 90 minutes prior to administration of N-acetyl cysteine (NAC) or N-acetyl cysteine amide (NACA or “AD4”). Animals were killed by decapitation 1 hour after NACA or NAC treatment.
Frontal cortex, striatum and liver samples were immediately excised on ice, weighed and sonicated in SSA buffer (5% sulfosalicylic acid in 100 mM disodium hydrogen orthophosphate, 100 mM sodium dihydrogen orthophosphate and 1 mM EDTA, pH 7.5, 5 mL/g wet tissue). The samples were subsequently centrifuged (22×10^3 g for 10 minutes, 4° C.) and the […] was taken and frozen at −80° C. until analysed.
Total glutathione levels (μmol GSH/gram tissue) were determined in all samples. Samples were assayed according to Baker et al. (1990). Reduced glutathione standards ranging from 0 to 320 ρmol of GSH in 50 μL were prepared in a background buffer identical to the samples (SSA buffer) and then treated in parallel with samples. 50 μl of sample or standard was placed on a 96-well microtiter plate with 100 μL of assay reagent (final concentration in well; 0.15 mM DTNB, 0.2 mM NADPH, 1.0 U glutathione reductase/mL). Plates were assayed for a total of 2 minutes at 414 nm using a Multiskan MCC/340 MK II plate reader and Genesis V3.05 computer software. All chemicals were purchased from Sigma-Aldrich. Statistical evaluation of the data was conducted using analysis of variance (ANOVA).

O=C1C=CCCC1 [CHX, cyclohexene-1-one]
Total glutathione levels in the brain striatum: significant decrease; also recorded: depleted | Total glutathione levels in the liver: significant decrease; also recorded: depleted

From US20100099762A1, “COMBINATION THERAPY” (THE MENTAL HEALTH RESEARCH INSTITUTE OF VICTORIA, priority 2006, published 2010)
